Results: patent US9187467B2, “2-phenyl benzothiazole linked imidazole compounds as potential anticancer agents and process for the preparation thereof” (Council of Scientific and Industrial Research, priority 2012, dated 2015)
Read-outs that look alike come from different tables or passages of the source. Blank lines part the entries; values can stand above or below the molecule they belong to.

Legend:
SNB-75 = experiment: SRB anticancer assay, CNS; type: cell-based, human; conditions: SNB-75, 48 h
OVCAR-4 = experiment: SRB anticancer assay, ovarian; type: cell-based, human; conditions: OVCAR-4, 48 h
HS 578T = experiment: SRB anticancer assay, breast; type: cell-based, human; conditions: 48 h
ACHN = experiment: SRB anticancer assay, renal; type: cell-based, human; conditions: 48 h
DU-145 = experiment: SRB anticancer assay, prostate; type: cell-based, human; conditions: DU-145, 48 h
NCI-H522 = experiment: SRB anticancer assay, non-small lung; type: cell-based, human; conditions: NCI-H522, 48 h
A498 = experiment: SRB anticancer assay, renal; type: cell-based, human; conditions: A498, 48 h
BT-549 = experiment: SRB anticancer assay, breast; type: cell-based, human; conditions: BT-549, 48 h
M14 = experiment: SRB anticancer assay, melanoma; type: cell-based, human; conditions: M14, 48 h
HCT-116 = experiment: SRB anticancer assay, colon; type: cell-based, human; conditions: HCT-116, 48 h
CCRF-CEM = experiment: SRB anticancer assay, leukemia; type: cell-based, human; conditions: 48 h
NCI-H226 = experiment: SRB anticancer assay, non-small lung; type: cell-based, human; conditions: NCI-H226, 48 h
HCT-15 = experiment: SRB anticancer assay, colon; type: cell-based, human; conditions: HCT-15, 48 h
MOLT-4 = experiment: SRB anticancer assay, leukemia; type: cell-based, human; conditions: MOLT-4, 48 h
TK-10 = experiment: SRB anticancer assay, renal; type: cell-based, human; conditions: TK-10, 48 h
NCI-H23 = experiment: SRB anticancer assay, non-small lung; type: cell-based, human; conditions: NCI-H23, 48 h
HL-60 (TB) = experiment: SRB anticancer assay, leukemia; type: cell-based, human; conditions: HL-60 (TB), 48 h; read-out: GI50
SF-295 = experiment: SRB anticancer assay, CNS; type: cell-based, human; conditions: SF-295, 48 h
SN12C = experiment: SRB anticancer assay, renal; type: cell-based, human; conditions: 48 h
MDA-MB-435 = experiment: SRB anticancer assay, melanoma; type: cell-based, human; conditions: MDA-MB-435, 48 h
A549/ATCC = experiment: SRB anticancer assay, non-small lung; type: cell-based, human; conditions: 48 h
EKVX = experiment: SRB anticancer assay, non-small lung; type: cell-based, human; conditions: 48 h
HCC-2998 = experiment: SRB anticancer assay, colon; type: cell-based, human; conditions: HCC-2998, 48 h
SR = experiment: SRB anticancer assay, leukemia; type: cell-based, human; conditions: 48 h
PC-3 = experiment: SRB anticancer assay, prostate; type: cell-based, human; conditions: PC-3, 48 h
IGROV1 = experiment: SRB anticancer assay, ovarian; type: cell-based, human; conditions: IGROV1, 48 h
NCI-H460 = experiment: SRB anticancer assay, non-small lung; type: cell-based, human; conditions: NCI-H460, 48 h
COLO 205 = experiment: SRB anticancer assay, colon; type: cell-based, human; conditions: COLO 205, 48 h
HT29 = experiment: SRB anticancer assay, colon; type: cell-based, human; conditions: HT29, 48 h
MDA-MB-231/ATCC = experiment: SRB anticancer assay, breast; type: cell-based, human; conditions: 48 h, read-out: GI50
UACC-257 = experiment: SRB anticancer assay, melanoma; type: cell-based, human; conditions: UACC-257, 48 h
RXF 393 = experiment: SRB anticancer assay, renal; type: cell-based, human; conditions: RXF 393, 48 h
LOX IMVI = experiment: SRB anticancer assay, melanoma; type: cell-based, human; conditions: 48 h
K-562 = experiment: SRB anticancer assay, leukemia; type: cell-based, human; conditions: K-562, 48 h
U251 = experiment: SRB anticancer assay, CNS; type: cell-based, human; conditions: U251, 48 h
SK-MEL-5 = experiment: SRB anticancer assay, melanoma; type: cell-based, human; conditions: SK-MEL-5, 48 h
NCI-H322M = experiment: SRB anticancer assay, non-small lung; type: cell-based, human; conditions: 48 h
UO-31 = experiment: SRB anticancer assay, renal; type: cell-based, human; conditions: UO-31, 48 h
UACC-62 = experiment: SRB anticancer assay, melanoma; type: cell-based, human; conditions: UACC-62, 48 h
MCF7 = experiment: SRB anticancer assay, breast; type: cell-based, human; conditions: MCF7, 48 h
K562 (Leukemia) cells = experiment: Cell cycle distribution by flow cytometry; type: cell-based
Method: (§1) In order to investigate the mechanism underlying the anti-proliferative effect of the compounds the cell cycle distribution was analyzed in K562 (Leukemia) and MCF-7 (Breast carcinoma) cell lines by flow cytometry. Compounds CA-4, 21a, 21d, 4c, 6d, 6e, 6f, 7d, 7h and 7j have shown 1.72%, 14%, 12%, 14%, 12%, 14%, 14%, 16%, 16% &12% in K562 cells and 49.63%, 21%, 20%, 18%, 21%, 21%, 21%, 24%, 23% and 23% in MCF-7 cell line respectively. […] Thus compound 7d was considered for further studies (FIG. 1).

caspase-9 = experiment: Western blot, apoptosis proteins in MCF-7 cells; type: cell-based; conditions: 2 μM, 24h
Method: (§2) FIG. 3 represents effect of compound 7d and 7h on p21 and caspase-9. MCF-7 cells were treated with 2 μM concentration of compounds 7d and 7h for 24h. The cell lysates were collected and probed with anti-bodies against p21 and caspase-9. beta-actin was used as loading control. Con: Control (untreated).
(§3) Activation of tumor suppressor gene p21 was the important regulator of apoptotic pathway caused by various stimuli. In many instances the apoptotic cell death is mediated by caspases, thus the possible involvement of p21 and caspase protein and its role in apoptosis has been investigated. MCF-7 cells were treated with 7d, 7h (the effective compounds of cell cycle arrest) 21a, 21d and CA-4 at 2 μM concentration.

p21 = experiment: Western blot, apoptosis proteins in MCF-7 cells; type: cell-based; conditions: 2 μM, 24h
Method: as §2, §3

[1] = test system: MCF-7 (Breast carcinoma) cells; experiment: Cell cycle distribution by flow cytometry (FACS); type: cell-based; conditions: MCF-7 cells, 2 μM, 24h
Method: FIG. 1 represents FACS analysis of cell cycle distribution of MCF-7 cells after treatment with compounds CA-4, 21a, 21d, 4c, 6d, 6e, 6f, 7d, 7h and 7j at 2 μM concentration for 24h and control cells are the cells treated with DMSO (0.25%).
as §1

SNB-19 = experiment: SRB anticancer assay, CNS; type: cell-based, human; conditions: SNB-19, 48 h
OVCAR-5 = experiment: SRB anticancer assay, ovarian; type: cell-based, human; conditions: OVCAR-5, 48 h
SK-OV-3 = experiment: SRB anticancer assay, ovarian; type: cell-based, human; conditions: SK-OV-3, 48 h
SF-268 = experiment: SRB anticancer assay, CNS; type: cell-based, human; conditions: SF-268, 48 h
SW-620 = experiment: SRB anticancer assay, colon; type: cell-based, human; conditions: SW-620, 48 h
KM12 = experiment: SRB anticancer assay, colon; type: cell-based, human; conditions: KM12, 48 h
CAKI-1 = experiment: SRB anticancer assay, renal; type: cell-based, human; conditions: CAKI-1, 48 h
HOP-62 = experiment: SRB anticancer assay, non-small lung; type: cell-based, human; conditions: HOP-62, 48 h
786-0 = experiment: SRB anticancer assay, renal; type: cell-based, human; conditions: 786-0, 48 h
OVCAR-3 = experiment: SRB anticancer assay, ovarian; type: cell-based, human; conditions: OVCAR-3, 48 h
SK-MEL-28 = experiment: SRB anticancer assay, melanoma; type: cell-based, human; conditions: SK-MEL-28, 48 h
MALME-3M = experiment: SRB anticancer assay, melanoma; type: cell-based, human; conditions: MALME-3M, 48 h
[2] = test system: microtubule network of MCF-7 cells; experiment: Effect on microtubule network; type: cell-based; conditions: 2 μM
Method: FIG. 2 represents effect of compound 7d, the effective compound on the microtubule network of MCF-7 cells untreated cells (Con), nocodazole (Noc) and 7d at 2 μM concentration. Microtubules and unassembled tubulin are shown in green and DNA was stained with nuclear dye DAPI (4,6-diamidino-2-phenylindole) is shown in blue colour.
Inhibition of tubulin is associated with G2/M cell cycle arrest by interrupting chromosome segregation and affecting mitotic spindle formation. […] It was considered of interest to understand the mechanism of anti-cancer activity of compound 7d with regard to interaction with microtubule system. MCF-7 breast cancer cells were treated with Nocodazole (Noc), 7d compounds at 2 μM concentration.

[3] = MDA-MB-231/ATCC (row head MDA-MB-)

- GI50 (SNB-75): 33.1 µM
- GI50 (OVCAR-4): 0.54 µM
- GI50 (HS 578T): 66.1 µM
- GI50 (ACHN): 51.3 µM
- GI50 (DU-145): 61.7 µM
- GI50 (NCI-H522): 32.4 µM
- GI50 (A498): 42.7 µM
- GI50 (BT-549): 0.1 µM
- GI50 (M14): 57.6 µM
- GI50 (HCT-116): 43.7 µM
- GI50 (CCRF-CEM): 6.45 µM
- GI50 (NCI-H226): 0.35 µM
- GI50 (HCT-15): 47.9 µM
- GI50 (MOLT-4): 19.5 µM
- GI50 (TK-10): 0.18 µM
- GI50 (NCI-H23): 58.9 µM
- GI50 (HL-60 (TB)): 8.71 µM
- GI50 (SF-295): 64.6 µM
- GI50 (SN12C): 50.1 µM
- GI50 (MDA-MB-435): 79.5 µM
- GI50 (A549/ATCC): 28.8 µM
- GI50 (EKVX): 34.7 µM
- GI50 (HCC-2998): 0.25 µM
- GI50 (SR): 17.4 µM
- GI50 (PC-3): 31.6 µM
- GI50 (IGROV1): 0.042 µM
- GI50 (NCI-H460): 53.7 µM
- GI50 (COLO 205): 51.3 µM
- GI50 (HT29): 29.5 µM
- GI50 (MDA-MB-231/ATCC; [3]): 66.1 µM
- GI50 (UACC-257): 74.2 µM
- GI50 (RXF 393): 70.6 µM
- GI50 (LOX IMVI): 37.2 µM
- GI50 (K-562): 6.02 µM
- GI50 (U251): 66.1 µM
- GI50 (SK-MEL-5): 21.9 µM
- GI50 (NCI-H322M): 43.7 µM
- GI50 (UO-31): 6.45 µM
- GI50 (UACC-62): 70.8 µM
- GI50 (MCF7): 0.03 µM
Compound: Cc1cc(-c2nc3ccccc3s2)ccc1N [Compound 3a, reference compound]

Compound: Nc1ccc(-c2nc3ccc(F)cc3s2)cc1 [Compound 21a, 4-(6-fluorobenzo[d]thiazol-2-yl)benzenamine]
- cells in G2/M phase (K562 (Leukemia) cells): 14%
- caspase-9 protein (Western blot) (caspase-9): increase
- p21 protein (Western blot) (p21): increase
- cells in G2/M phase [1]: 21%

- GI50 (SNB-75): 15.8 µM
- GI50 (SNB-19): 45.7 µM
- GI50 (OVCAR-4): 37.2 µM
- GI50 (HS 578T): 14.1 µM
- GI50 (ACHN): 53.7 µM
- GI50 (DU-145): 33.9 µM
- GI50 (OVCAR-5): 83.2 µM
- GI50 (NCI-H522): 30.2 µM
- GI50 (A498): 41.7 µM
- GI50 (SK-OV-3): 37.2 µM
- GI50 (SF-268): 35.5 µM
- GI50 (BT-549): 22.4 µM
- GI50 (SW-620): 66.1 µM
- GI50 (M14): 33.1 µM
- GI50 (KM12): 57.6 µM
- GI50 (HCT-116): 43.7 µM
- GI50 (CAKI-1): 34.7 µM
- GI50 (CCRF-CEM): 0.79 µM
- GI50 (NCI-H226): 60.3 µM
- GI50 (MOLT-4): 26.9 µM
- GI50 (TK-10): 77.6 µM
- GI50 (HOP-62): 30.9 µM
- GI50 (NCI-H23): 12.6 µM
- GI50 (786-0): 29.5 µM
- GI50 (OVCAR-3): 38.9 µM
- GI50 (SF-295): 31.6 µM
- GI50 (SK-MEL-28): 64.6 µM
- GI50 (SN12C): 38.9 µM
- GI50 (MDA-MB-435): 89.1 µM
- GI50 (A549/ATCC): 34.7 µM
- GI50 (EKVX): 4.07 µM
- GI50 (SR): 21.9 µM
- GI50 (PC-3): 50.1 µM
- GI50 (IGROV1): 47.9 µM
- GI50 (NCI-H460): 38.9 µM
- GI50 (HT29): 37.2 µM
- GI50 (MDA-MB-231/ATCC; [3]): 44.7 µM
- GI50 (MDA-MB-231/ATCC; listed as head printed 231/ATCC (second line of MDA-MB-231/ATCC)): 95.5 µM
- GI50 (RXF 393): 30.2 µM
- GI50 (K-562): 36.3 µM
- GI50 (U251): 31.6 µM
- GI50 (SK-MEL-5): 52.5 µM
- GI50 (NCI-H322M): 39.8 µM
- GI50 (UO-31): 21.4 µM
- GI50 (MALME-3M): 83.2 µM
- GI50 (UACC-62): 57.6 µM
- GI50 (MCF7): 56.2 µM
Compound: Cc1cc(-c2nc3ccc(O)cc3s2)ccc1N [Compound 3b, reference compound]

Compound: COc1ccc(/C=C\c2cc(OC)c(OC)c(OC)c2)cc1O [CA-4, Combretastatin A-4, reference compound]
- cells in G2/M phase (K562 (Leukemia) cells): 1.72%
- caspase-9 protein (Western blot) (caspase-9): increase
- p21 protein (Western blot) (p21): increase
- cells in G2/M phase [1]: 49.63%

Compound: COc1cc2nc(-c3ccc(N)cc3)sc2c(OC)c1OC [Compound 21d, 4-(5,6,7-trimethoxybenzo[d]thiazol-2-yl)benzenamine]
- cells in G2/M phase (K562 (Leukemia) cells): 12%
- caspase-9 protein (Western blot) (caspase-9): increase
- p21 protein (Western blot) (p21): increase
- cells in G2/M phase [1]: 20%

Compound: COC(=O)Nc1nc2ccc(C(=O)c3cccs3)cc2[nH]1 [Nocodazole, reference compound]
- microtubulin organization [2]: disrupted microtubulin organization
